# Laboratory results reported in patent US9556165B2 (priority 2012, dated 2017).
# Like-named read-outs stand apart in the source and are kept apart here.
# Assays:
# Type in all cases: cell-based
# [1] = test system: E. coli ATCC25922; test: MIC determination, broth microdilution (CLSI); conditions: for MIC: Escherichia coli, ATCC25922, strain 1
# [2] = test system: K. pneumoniae 60; test: MIC determination, broth microdilution (CLSI); conditions: for MIC: Klebsiella pneumoniae, 60, strain 2
# [3] = test system: E. cloacae 34654; test: MIC determination, broth microdilution (CLSI); conditions: for MIC: Enterobacter cloacae, 34654, strain 3
# [4] = test system: C. freundii K21/3034; test: MIC determination, broth microdilution (CLSI); conditions: for MIC: Citrobacter freundii, K21/3034, strain 4
# [5] = test system: M. morganii 126/3048; test: MIC determination, broth microdilution (CLSI); conditions: for MIC: Morganella morganii, 126/3048, strain 5
# [6] = test system: P. aeruginosa PAO1; test: MIC determination, broth microdilution (CLSI); conditions: for MIC: Pseudomonas aeruginosa, PAO1, strain 6
# [7] = test system: P. aeruginosa 2297 (AmpC wt); test: MIC determination, broth microdilution (CLSI); conditions: for MIC: Pseudomonas aeruginosa, strain 7
# [8] = test system: P. aeruginosa 2297-con (AmpC derepressed); test: MIC determination, broth microdilution (CLSI); conditions: for MIC: Pseudomonas aeruginosa, read-out: strain 8 MIC, strain 8
# [9] = test system: A. baumannii ATCC15308; test: MIC determination, broth microdilution (CLSI); conditions: for MIC: Acinetobacter baumannii, ATCC15308, strain 9
# [10] = test system: S. maltophilia ICB7569; test: MIC determination, broth microdilution (CLSI); conditions: for MIC: Stenotrophomonas maltophilia, ICB7569, strain 10
# [11] = test system: S. aureus 133; test: MIC determination, broth microdilution (CLSI)
# [12] = test system: E. coli J62; test: MIC determination, broth microdilution (CLSI); conditions: broth microdilution; for MIC: Escherichia coli, J62, strain 17, read-out: MIC strain 17 (E. coli J62)
# [13] = test system: E. coli J62-TEM-3; test: MIC determination, broth microdilution (CLSI); conditions: broth microdilution; for MIC: Escherichia coli, J62TEM3, read-out: MIC strain 18 (E. coli J62-TEM-3), strain 18
# [14] = test system: Bacteria; test: MIC determination in combination with β-lactamase inhibitors (constant 4 μg/mL)
# [15] = test system: H. influenzae ATCC 49247; test: MIC determination, broth microdilution (CLSI); conditions: Haemophilus influenzae, ATCC49247, strain 12; broth microdilution; read-out: MIC strain 12 (H. influenzae ATCC 49247)
# [16] = test system: S. pneumoniae 113; test: MIC determination, broth microdilution (CLSI); conditions: Streptococcus pneumoniae, 113, strain 13; broth microdilution; read-out: MIC strain 13 (S. pneumoniae 113)
# [17] = test system: B. fragilis 6688; test: MIC determination, broth microdilution (CLSI); conditions: Bacteroides fragilis, 6688, strain 15; broth microdilution; read-out: MIC strain 15 (B. fragilis 6688)
# [18] = Staphylococcus aureus, 133, strain 14, broth microdilution, read-out: MIC strain 14 (S. aureus 133)
# [19] = Staphylococcus aureus, 133, strain 11, read-out: strain 11 MIC
Structure (SMILES),MIC [6] [µg/mL],MIC [7] [µg/mL],MIC [9] [µg/mL],"MIC [11, 18] [µg/mL]",MIC strain 19 (E. coli J62-TEM-3 + 4 μg/mL clavulanic acid) [14] [µg/mL],MIC strain 20 (E. coli J62-TEM-3 + 4 μg/mL sulbactam) [14] [µg/mL],MIC strain 21 (E. coli J62-TEM-3 + 4 μg/mL tazobactam) [14] [µg/mL],MIC [1] [µg/mL],MIC [2] [µg/mL],MIC [3] [µg/mL],MIC [4] [µg/mL],MIC [5] [µg/mL],MIC [10] [µg/mL],"MIC [11, 19] [µg/mL]",MIC [15] [µg/mL],MIC [16] [µg/mL],MIC [17] [µg/mL],MIC [12] [µg/mL],MIC [13] [µg/mL],MIC [8] [µg/mL],further results
"CC1(C)[C@H](NC(=O)/C(=N\OC(CO)COc2ccc(C(=N)N)cc2)c2csc(N)n2)C(=O)N1OS(=O)(=O)O (mixture of isomers) [Example 45A, (2Z)-2-(2-Amino-1,3-thiazol-4-yl)-2-({[(2R and 2S)-1-(4-carbamimidoylphenoxy)-3-hydroxypropan-2-yl]oxy}imino)-N-[(3S)-2,2-dimethyl-4-oxo-1-(sulfooxy)azetidin-3-yl]ethanamide]",8,16,2,8,0.5,0.5,0.5,,,,,,,,,,,,,,strain 1 MIC [1]: 0.5 µg/mL; strain 2 MIC [2]: 0.5 µg/mL; strain 3 MIC [3]: 1 µg/mL; strain 4 MIC [4]: 0.25 µg/mL; strain 5 MIC ([5]; strain 5): 0.5 µg/mL; strain 8 MIC [8]: 8 µg/mL; strain 10 MIC [10]: 8 µg/mL; MIC strain 17 (E. coli J62) [12]: 0.5 µg/mL; MIC strain 18 (E. coli J62-TEM-3) [13]: 1 µg/mL
"CC1(C)[C@H](NC(=O)/C(=N\O[C@@H](COc2ccc(C(=N)NC3CC3N)cc2)C(=O)O)c2csc(N)n2)C(=O)N1OS(=O)(=O)O (single isomer, unassigned) [Example 100B]",,,,,2,2,2,,,,,,,,,,,,,,strain 1 MIC [1]: 2 µg/mL; strain 2 MIC [2]: 2 µg/mL; strain 3 MIC [3]: 4 µg/mL; strain 4 MIC [4]: 2 µg/mL; strain 6 MIC ([6]; strain 6): 16 µg/mL; strain 7 MIC [7]: 32 µg/mL; strain 8 MIC [8]: 16 µg/mL; strain 9 MIC ([9]; strain 9): 32 µg/mL; strain 10 MIC [10]: 32 µg/mL; MIC strain 17 (E. coli J62) [12]: 4 µg/mL; MIC strain 18 (E. coli J62-TEM-3) [13]: 16 µg/mL
"C[C@H]1[C@H](NC(=O)/C(=N\OCCOc2ccc(C(=N)NNC=O)cc2)c2csc(N)n2)C(=O)N1S(=O)(=O)O [Example 63, (2S,3S)-3-({(2Z)-2-(2-Amino-1,3-thiazol-4-yl)-2-[(2-{4-[(2-formylhydrazinyl)(imino)methyl]phenoxy}ethoxy)imino]acetyl}amino)-2-methyl-4-oxoazetidine-1-sulfonic acid]",8,8,16,16,0.25,0.5,0.5,0.5,0.25,0.5,0.25,0.5,16,0.5,0.125,0.5,16,0.5,8,,
"C[C@H]1[C@H](NC(=O)/C(=N\OCCOc2ccc(C(=N)NN)cc2)c2csc(N)n2)C(=O)N1S(=O)(=O)O [Example 64, (2S,3S)-3-({(2Z)-2-(2-Amino-1,3-thiazol-4-yl)-2-[(2-{4-[hydrazinyl(imino)methyl]phenoxy}ethoxy)imino]acetyl}amino)-2-methyl-4-oxoazetidine-1-sulfonic acid]",8,16,8,8,1,1,2,0.5,0.25,0.5,0.5,0.5,32,16,8,32,,1,32,,
"CNC(=N)c1ccc(OCCO/N=C(\C(=O)N[C@@H]2C(=O)N(S(=O)(=O)O)[C@H]2C)c2csc(N)n2)cc1 [Example 68, (2S,3S)-3-{[(2Z)-2-(2-Amino-1,3-thiazol-4-yl)-2-({2-[4-(N-methylcarbamimidoyl)-phenoxy]ethoxy}imino)acetyl]amino}-2-methyl-4-oxoazetidine-1-sulfonic acid]",2,8,2,2,0.125,0.25,0.25,0.125,0.25,0.125,0.125,0.125,,≤ 0.063,0.125,0.5,8,0.25,16,32,
"C[C@H]1[C@H](NC(=O)/C(=N\OCCOc2cc(C(=N)N)nn2C)c2csc(N)n2)C(=O)N1S(=O)(=O)O [Example 71, (2S,3S)-3-{[(2Z)-2-(2-Amino-1,3-thiazol-4-yl)-2-({2-[(3-carbamimidoyl-1-methyl-1H-pyrazol-5-yl)oxy]ethoxy}imino)acetyl]amino}-2-methyl-4-oxoazetidine-1-sulfonic acid]",16,32,4,,2,4,4,2,1,4,1,1,4,0.25,1,0.5,8,8,32,,
"CC1(C)[C@H](NC(=O)/C(=N\OC(COc2ccc(C(=N)N)cc2)C(N)=O)c2csc(N)n2)C(=O)N1OS(=O)(=O)O (stereo partly drawn) [Example 75, 2-({[(1Z)-1-(2-Amino-1,3-thiazol-4-yl)-2-{[(3S)-2,2-dimethyl-4-oxo-1-(sulfooxy)azetidin-3-yl]amino}-2-oxoethylidene]amino}oxy)-3-(4-carbamimidoylphenoxy)propanamide]",8,16,2,16,0.25,0.5,0.5,0.25,0.5,0.5,0.125,0.25,4,,,,,0.5,1,8,
"CC1(C)[C@H](NC(=O)/C(=N\OCCOc2ccc(C(=N)N3CCNCC3)cc2)c2csc(N)n2)C(=O)N1OS(=O)(=O)O [Example 80, (2Z)-2-(2-Amino-1,3-thiazol-4-yl)-N-[(3S)-2,2-dimethyl-4-oxo-1-(sulfooxy)azetidin-3-yl]-2-[(2-{4-[imino(piperazin-1-yl)methyl]phenoxy}ethoxy)imino]ethanamide]",16,16,2,4,0.5,0.5,0.5,0.25,0.5,1,0.25,,32,,,,,0.5,16,8,
CC1(C)[C@H](NC(=O)/C(=N\O[C@@H](COc2ccc(C(=N)N[C@H]3CCNC3)cc2)C(=O)O)c2csc(N)n2)C(=O)N1OS(=O)(=O)O [Example 93],1,1,1,32,0.125,0.125,0.125,≤ 0.063,0.125,0.125,≤ 0.063,,4,,,,,0.125,4,1,
